Literature values as cited in patent US7956090B2, “Composition and method for increasing the anabolic state of muscle cells” (priority 2007, dated 2011).

Experiments:
[1] = about 1.5 g daily after intense exercise for 42 days
[2] = condensation and cyclization upon dissolution in water

| stability in aqueous solution [2] | SMILES | delayed onset muscle soreness [1] | total lean soft tissue mass [1] |
| --- | --- | --- | --- |
| – | CC(C)CC(O)C(=O)O (stereo not drawn) [HICA, 2-hydroxy-4-methylvaleric acid] | little to no delayed onset muscle soreness | statistically significant increase |
| poor stability | CC(=O)C(=O)O [pyruvate, pyruvic acid] | – | – |
